The subject of the assay is HeLa cervix carcinoma cells. The assay is classed as cell-based, human. On the procedure:
(a) Kinetic Studies: HeLa-cell-Uptake of the Gd-complex-transporter [without Address-sequence or with Either Antisense (ACGT)- or Random-sequence (RCGT)] Compared to Magnevist®. Living HeLa-cells were harvested and divided into tubes (Falcon) (Cell No.: 20×10^6 cells per tube). The Gd-complex-transporter without address-sequence and the Magnevist® were each dissolved in MEM culture medium in a concentration of 100 pM and were then incubated for 10, 20, 30 and 60 minutes. […] T1 and T2 relaxation-times within the pellets of both tubes were measured to evaluate the intracellular relaxivity of the respective contrast agents (R=1/T1). The T1-relaxation time was measured by means of an inversion-recovery-sequence (TR: 5000 ms/TE: 76 ms/TI: 25-4000 ms, 15 different TI-values, scan-time 15×25 sec, FOV: 160 mm×160 mm, Matrix: 132×256, slice thickness: 7 mm, pixel size: 1.21×0.63 mm). T2 relaxation-time was measured by a multi-echo-sequence (TR: 5000 ms/16 TE-values: 30 ms−245 ms, FOV: 250 mm×250 mm, Matrix: 256×256, slice thickness: 5 mm, pixel size: 0.98×0.98 mm, scan time: 21 min 21 sec). […] This procedure was repeated hourly until no signal increase compared to the control tube (HeLa cells or lymphocytes in MEM medium without contrast agent) could be detected in T1 weighted sequences.

In the case of `CNC[C@H](O)[C@@H](O)[C@H](O)[C@H](O)CO.CNC[C@H](O)[C@@H](O)[C@H](O)[C@H](O)CO.O=C([O-])CN(CCN(CC(=O)[O-])CC(=O)O)CCN(CC(=O)[O-])CC(=O)O.[Gd+3]` [Magnevist®, reference compound], the “MR signal change compared with HeLa cells incubated solely in MEM” value (HeLa cells, 100 pM, 1 hour incubation) is listed as “no signal change”. The “relaxivity R (R=1/T1) within the HeLa-cell pellets” value (HeLa-cell pellets after incubation, inversion-recovery T1 measurement) was 0.000995.

The record behind these values is US7531502B2, “Diagnostic conjugate useful for intracellular imaging and for differentiating between tumor- and non-tumor cells” (Deutsches Krebsforschungszentrum Stiftung Des Offentlichen …, priority 2002, dated 2009).
